The text below walks through data of patent US8518997B2, “4-(phenoxyalkyl)thio)-phenoxyacetic acids and analogs” (Janssen Pharmaceutica N.V., priority 2003, dated 2013).

Values joined by “and” are separate entries in the source; they are usually repeats but may differ in a detail not shown here. Equal entries are not always repeated.

For this assay, the target named is T1, PPAR delta (Homo sapiens, UniProt Q03181).
T1 sequence (Q03181 171-441 limits assumed): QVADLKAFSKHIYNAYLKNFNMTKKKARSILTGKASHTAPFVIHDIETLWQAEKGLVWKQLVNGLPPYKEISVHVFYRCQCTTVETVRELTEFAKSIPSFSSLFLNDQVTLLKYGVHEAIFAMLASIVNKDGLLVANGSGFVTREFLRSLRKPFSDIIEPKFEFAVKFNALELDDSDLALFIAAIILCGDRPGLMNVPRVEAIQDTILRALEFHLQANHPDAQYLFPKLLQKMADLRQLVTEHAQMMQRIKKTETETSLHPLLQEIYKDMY
Put plainly: Transfection assay for PPAR receptors (PPAR-Gal4 / Gal4-Luciferase reporter in HEK293 cells). Type of assay: cell-based. The following applies: HEK293 cells co-transfected with PPAR-Gal4 (δ) receptor and Gal4-Luciferase reporter, 24 hours; multiple EC50's = multiple measurements; Table 2. As for the experimental part: Transfection Assay Method for PPAR Receptors
HEK293 cells were grown in DMEM/F-12 Media supplemented with 10% FBS and glutamine (GIBCOBRL). The cells were co-transfected with DNA for PPAR-Gal4 (PPARα, γ or δ) receptor and Gal4-Luciferase Reporter using the DMRIE-C Reagent. On the following day, the medium was replaced with 5% Charcoal treated FBS growth medium. After six hours, cells were trypsinized and seeded at a density of 50,000 cell/well into 96 well plates and incubated overnight at 37° C. in a 5% CO2 incubator. Cells were then treated with test compounds or vehicle and incubated for 24 hours at 37° C. in a 5% CO2 incubator. Luciferase activity was assayed using the Steady-Glo Luciferase Assay Kit from Promega. […] Steady-Glo Luciferase Assay Kit was purchased from Promega Part# E254B.
(In general: In a reporter assay the amount or activity of a reporter protein is the signal.)
For the compound `COCO[C@@H](COc1ccc(C(F)(F)F)cc1)CSc1ccc(OCC(=O)O)c(C)c1` [Compound 23, (S)-{4-[2-Methoxymethoxy-3-(4-trifluoromethyl-phenoxy)-propylsulfanyl]-2-methyl-phenoxy}-acetic acid], the EC50 (as a rule, the concentration needed to bring the measured effect to its halfway point) was 70 nM.
Consider `CCCOC(COc1ccc(C(F)(F)F)cc1)CSc1ccc(OCC(=O)O)c(C)c1` (stereo not drawn) [Compound 18, {2-Methyl-4-[2-propoxy-3-(4-trifluoromethyl-phenoxy)-propylsulfanyl]-phenoxy}-acetic acid], for which the midpoint of the response, the EC50, lay at 4.3 nM.
With `Cc1cc(SC[C@@H](COc2ccc(C(F)(F)F)cc2)OCc2ccc(Cl)s2)ccc1OCC(=O)O` [Compound 27, {4-[2-(5-Chloro-thiophen-2-ylmethoxy)-3-(4-trifluoromethyl-phenoxy)-propylsulfanyl]-2-methyl-phenoxy}-acetic acid] the figure was 11.9 nM and 18.5 nM.
In the case of `CSCOC(COc1ccc(C(F)(F)F)cc1)CSc1ccc(OCC(=O)O)c(C)c1` (stereo not drawn) [Compound 25, {2-Methyl-4-[2-methylsulfanylmethoxy-3-(4-trifluoromethyl-phenoxy)-propylsulfanyl]-phenoxy}-acetic acid], the EC50 is 25.2 nM and 8.9 nM and 8.8 nM.
On to `CCC(COc1ccc(C(F)(F)F)cc1)CSc1ccc(OCC(=O)O)c(C)c1` (stereo not drawn) [Compound 3, {2-Methyl-4-[2-(4-trifluoromethyl-phenoxymethyl)-butylsulfanyl]-phenoxy}-acetic acid], for which the concentration for a half-maximal effect (EC50) is 0.08 nM and 0.04 nM.
The compound `Cc1ccc(OCC(O)CSc2ccc(OCC(=O)O)c(C)c2)cc1` (stereo not drawn) [Compound 31] returned an EC50 greater than 1000 nM.
As for `CCOC(COc1ccc(C(F)(F)F)cc1)CSc1ccc(OCC(=O)O)c(C)c1` (stereo not drawn) [Compound 17, {4-[2-Ethoxy-3-(4-trifluoromethyl-phenoxy)-propylsulfanyl]-2-methyl-phenoxy}-acetic acid], the EC50 is 4.2 nM and 3.2 nM and 1.5 nM and 4.5 nM and 0.69 nM and 2.7 nM.
The compound `CCCC(=O)c1ccc(OC(COc2ccc(C(F)(F)F)cc2)CSc2ccc(OCC(=O)O)c(C)c2)cc1` (stereo not drawn) [Compound 30, {4-[2-(4-Butyryl-phenoxy)-3-(4-trifluoromethyl-phenoxy)-propylsulfanyl]-2-methyl-phenoxy}-acetic acid] yielded an EC50 of 23.9 nM.
In turn, `Cc1cc(SCC(C)Oc2ccc(C(F)(F)F)cc2)ccc1OCC(=O)O` (stereo not drawn) [Compound 7, {2-Methyl-4-[2-(4-trifluoromethyl-phenoxy)-propylsulfanyl]-phenoxy}-acetic acid] returned an EC50 of 211 nM.
As to `Cc1cc(SCC(C/C=C/C#N)COc2ccc(C(F)(F)F)cc2)ccc1OCC(=O)O` (stereo not drawn) [Compound 12, {4-[5-Cyano-2-(4-trifluoromethyl-phenoxymethyl)-pent-4-enylsulfanyl]-2-methyl-phenoxy}-acetic acid], it took 19.9 nM to reach a half-maximal effect (EC50).
With `CCOC(/C=C/c1ccc(C(F)(F)F)cc1)CSc1ccc(OCC(=O)O)c(C)c1` (stereo not drawn) [Compound 42, {4-[2-Ethoxy-4-(4-trifluoromethyl-phenyl)-but-3-enylsulfanyl]-2-methyl-phenoxy}-acetic Acid], the EC50 is 8 nM and 7.9 nM.
`CCCCCC(COc1ccc(C(F)(F)F)cc1)CSc1ccc(OCC(=O)O)c(C)c1` (stereo not drawn) [Compound 6, {2-Methyl-4-[2-(4-trifluoromethyl-phenoxymethyl)-heptylsulfanyl]-phenoxy}-acetic acid]: the EC50 is 3.3 nM (2×) and 3.7 nM.
Regarding `Cc1cc(SCC(C)COc2ccc(C(F)(F)F)cc2)ccc1OCC(=O)O` (stereo not drawn) [Compound 1, {2-Methyl-4-[2-methyl-3-(4-trifluoromethyl-phenoxy)-propylsulfanyl]-phenoxy}-acetic acid], the concentration giving a half-maximal response (EC50) is 9.2 nM and 5.6 nM.
Consider `CSCOC(CCc1ccc(C(F)(F)F)cc1)CSc1ccc(OCC(=O)O)c(C)c1` (stereo not drawn) [Compound 39, {2-Methyl-4-[2-methylsulfanylmethoxy-4-(4-trifluoromethyl-phenyl)-butylsulfanyl]-phenoxy}-acetic Acid], for which the EC50 is 12.5 nM and 17.9 nM.
In turn, `Cc1cc(SCC(O)/C=C/c2ccc(C(F)(F)F)cc2)ccc1OCC(=O)O` (stereo not drawn) [Compound 41] displayed a 50% effective concentration (EC50) of 144 nM.
